# In US10286084B2, “Compositions for the inactivation of virus replication and methods of making and using the same” (priority 2014, dated 2019):
# Tests used:
# [1] = tested on: HPV-18 E6 gene; test: Mutagenesis spectra: PCR, cloning and sequencing of HeLa genomic DNA; type: cell-based; settings: Spy Cas9, 48 h post-transfection, of 234 DNA sequence reads
# Protocol: (§1) HeLa cells were plated at 2.5×10^5 cells per well in 6-well plates and transfected using Fugene6 with a 3 to 1 ratio of RGN expression vector to pL/CMV/eGFP (pLCE) (Seedorf et al., 1987), which expresses eGFP, to determine transfection efficiency. Genomic DNA was extracted 48 hours post-transfection using a DNeasy kit (Qiagen) following the manufacturer's protocol. The genomic region surrounding the viral target sites was PCR amplified using GoTaq cocktail (Promega, #9PIM300) and then purified. PCR products were then denatured and reannealed to enable DNA heteroduplex formation: 95° C. for 10 min, 95° C. to 85° C. ramping at −1° C./sec, 85° C. to 25° C. at −0.25° C./sec, and 25° C. hold for 1 minute. After reannealing, products were treated with SURVEYOR nuclease and SURVEYOR enhancer S (Transgenomics) following the manufacturer's protocol, and analyzed on a 2% agarose gel. To determine the sequence spectra of the mutations introduced by HPV-18 E6- and E7-specific sgRNAs, we designed primers with unique restriction enzyme sites that bound sequences flanking the predicted RGN cleavage locations. The mutagenized HeLa genomic DNA was PCR amplified at 48 hours after transfection, cloned, sequenced, and aligned to the HeLa genome.
# (§2) We next asked if we could inactivate the endogenous HPV-18 E6 and E7 genes integrated into the HeLa cell genome. As all four sgRNAs appeared to function equivalently, we focused our subsequent research on E6 sgRNA1 and E7 sgRNA1. To confirm these sgRNAs were indeed inducing the expected DNA cleavage, we used the SURVEYOR assay to determine if we could detect RGN-induced indels at the predicted Cas9 cleavage site. For this purpose, we transfected HeLa cells with a px330-based vector encoding Spy Cas9 (Cong et al., 2013) and an E6- or E7-specific sgRNA. At 48 hours post-transfection, we isolated the HeLa genomic DNA and PCR-amplified the regions of the HPV-18 genome containing either the E6 or E7 target site for Cas9. The resultant PCR fragment was then isolated, denatured and then re-annealed to produce a population of DNA heteroduplexes that were digested using SURVEYOR nuclease, which is predicted to cleave at any sites of Cas9-induced mutagenesis. […] To further characterize these mutations, we cloned the same PCR fragments derived from the HPV-18 E6 or E7 gene and then performed DNA sequencing across the predicted cleavage site located 3 bp 5′ to the Cas9 PAM sequence (Mali et al., 2013). Analysis of the HPV-18 E6 gene gave 234 DNA sequence reads, of which 19 bore an assortment of different deletion mutations while 34 contained the same insertion mutation of a single “A” residue 3 bp 5′ to the Spy Cas9 PAM motif. The remaining 181 samples analyzed contained the wildtype E6 sequence. […]
# [2] = tested on: HPV-18 E7 gene; test: as above; type: cell-based; settings: Spy Cas9, 48 h post-transfection, of 232 DNA sequences
# Protocol: as §1, §2
Substance,DNA sequence reads bearing deletion mutations [1],DNA sequence reads with insertion of a single A residue 3 bp 5′ to the PAM [1],DNA sequences with deletion mutations adjacent to the predicted cleavage site [2],DNA sequences with insertions of 1 or 2 bp [2]
"E6 sgRNA1: Spy Cas9 sgRNA for HPV-18 E6, GGCGCTTTGAGGATCCAACA; SEQ ID NO: 8 (expressed or natural sequence)",19,34,,
"E7 sgRNA1: Spy Cas9 sgRNA for HPV-18 E7, GGAGCAATTAAGCGACTCAG; SEQ ID NO: 10 (expressed or natural sequence)",,,6,46
